Source: patent US10059657B2, “Class-and isoform-specific HDAC inhibitors and uses thereof” (priority 2009, dated 2018)
Blank lines part the entries; values can stand above or below the compound they belong to.

Key:
[1] = target: T1, Sirtuin3 (Homo sapiens, UniProt Q9NTG7); assay: Sirtuin activity assay, Sirtuin3; assay type: biochemical; conditions: highest testing concentration
T1 sequence (Q9NTG7 1-399): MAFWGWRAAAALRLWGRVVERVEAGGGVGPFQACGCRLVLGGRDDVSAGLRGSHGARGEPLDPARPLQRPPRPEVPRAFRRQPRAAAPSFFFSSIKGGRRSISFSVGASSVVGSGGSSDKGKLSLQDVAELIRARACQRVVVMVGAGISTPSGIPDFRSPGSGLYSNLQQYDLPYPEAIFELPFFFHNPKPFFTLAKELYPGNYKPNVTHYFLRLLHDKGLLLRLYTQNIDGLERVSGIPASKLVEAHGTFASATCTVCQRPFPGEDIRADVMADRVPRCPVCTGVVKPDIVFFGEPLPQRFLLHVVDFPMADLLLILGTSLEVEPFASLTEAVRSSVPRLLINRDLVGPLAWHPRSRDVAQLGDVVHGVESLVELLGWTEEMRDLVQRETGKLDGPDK
Procedure: (§1) A series of compound dilutions (10 fold higher than final concentrations) are made in 10% DMSO in HDAC assay buffer. 5 μl of each dilution is added to 50 μl of the reaction mixture so that the final concentration of DMSO is 1% in all of reactions.
(§2) All of the enzymatic reactions were conducted in duplicate at room temperature for 3 hours in a 50 μl mixture containing HDAC assay buffer, 5 μg BSA, 100 μM NAD^+, 10 μM HDAC substrate 1, a sirtuin enzyme, and the test compound.
(§3) After enzymatic reactions, 50 μl of 2×HDAC Developer was added to each well and the plate was incubated at room temperature for an additional 20 minutes. Fluorescence intensity was measured at an excitation of 360 nm and an emission of 460 nm using a BioTek Synergy™ 2 microplate reader.
(§4) Sirtuin activity assays were performed in duplicates at each concentration. The fluorescent intensity data were analyzed using the computer software, Graphpad Prism. […] The percent activity in the presence of each compound was calculated according to the following equation: % activity=(F−Fb)/(Ft−Fb), where F=the fluorescent intensity in the presence of the compound, Fb=the fluorescent intensity in the absence of the sirtuin, and Ft=the fluorescent intensity in the absence of the compound. […]
(§5) If the IC50 value is not available, the % inhibition of the compound at the highest testing concentration was calculated.

[2] = target: T2, Sirtuin2 (Homo sapiens, UniProt Q8IXJ6); assay: Sirtuin activity assay, Sirtuin2; assay type: biochemical; conditions: highest testing concentration
T2 sequence (Q8IXJ6 1-389): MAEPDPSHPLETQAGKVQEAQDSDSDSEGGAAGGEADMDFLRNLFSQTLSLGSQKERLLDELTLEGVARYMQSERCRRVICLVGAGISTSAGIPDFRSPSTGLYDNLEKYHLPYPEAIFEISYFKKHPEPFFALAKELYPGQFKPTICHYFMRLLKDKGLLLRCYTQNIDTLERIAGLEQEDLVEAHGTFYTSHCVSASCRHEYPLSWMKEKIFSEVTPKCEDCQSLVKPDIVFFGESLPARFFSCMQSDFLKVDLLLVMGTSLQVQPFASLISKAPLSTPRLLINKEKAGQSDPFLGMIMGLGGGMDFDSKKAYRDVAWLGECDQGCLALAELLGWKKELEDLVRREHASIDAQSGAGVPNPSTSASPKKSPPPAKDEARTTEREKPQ
Procedure: as §1, §2, §3, §4, §5

[3] = target: T3, H976Y HDAC4 gain of function mutant (Homo sapiens, UniProt P56524, H976Y); conditions: H976Y mutant compared with HDAC4; cited from earlier work
T3 sequence (P56524 1-1084 H976Y): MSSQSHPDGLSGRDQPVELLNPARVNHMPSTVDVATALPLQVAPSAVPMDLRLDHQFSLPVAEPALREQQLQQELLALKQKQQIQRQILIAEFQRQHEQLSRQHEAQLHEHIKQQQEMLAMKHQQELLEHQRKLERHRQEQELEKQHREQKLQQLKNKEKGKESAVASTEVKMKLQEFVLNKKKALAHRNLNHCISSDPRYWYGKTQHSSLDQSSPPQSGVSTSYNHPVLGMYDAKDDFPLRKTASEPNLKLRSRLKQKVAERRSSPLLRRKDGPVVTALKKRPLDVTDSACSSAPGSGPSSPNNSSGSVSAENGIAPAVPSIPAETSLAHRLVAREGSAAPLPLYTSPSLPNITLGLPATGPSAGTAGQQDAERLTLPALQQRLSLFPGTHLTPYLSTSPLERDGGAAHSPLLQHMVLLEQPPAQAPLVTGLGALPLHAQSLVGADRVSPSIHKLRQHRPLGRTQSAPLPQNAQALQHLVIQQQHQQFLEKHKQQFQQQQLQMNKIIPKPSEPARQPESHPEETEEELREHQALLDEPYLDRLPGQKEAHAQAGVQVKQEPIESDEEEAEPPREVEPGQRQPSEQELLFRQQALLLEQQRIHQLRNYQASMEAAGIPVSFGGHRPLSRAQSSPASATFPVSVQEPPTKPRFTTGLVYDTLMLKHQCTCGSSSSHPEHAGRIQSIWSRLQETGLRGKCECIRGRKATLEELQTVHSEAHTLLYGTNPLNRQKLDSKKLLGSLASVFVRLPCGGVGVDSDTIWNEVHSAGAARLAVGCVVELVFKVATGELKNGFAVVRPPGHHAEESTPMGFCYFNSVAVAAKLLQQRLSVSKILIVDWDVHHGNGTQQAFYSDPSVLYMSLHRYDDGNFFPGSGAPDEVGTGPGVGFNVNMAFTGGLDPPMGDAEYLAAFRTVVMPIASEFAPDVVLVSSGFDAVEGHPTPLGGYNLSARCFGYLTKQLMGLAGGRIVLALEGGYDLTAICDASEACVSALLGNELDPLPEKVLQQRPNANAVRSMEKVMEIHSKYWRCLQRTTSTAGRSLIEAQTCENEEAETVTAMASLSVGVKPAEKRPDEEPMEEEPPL

[4] = test system: HDAC1-9; assay: Biochemical HDAC assay, profiling against HDAC1-9; design: species or system human; conditions: dose-response, mean of three replicates
Procedure: The inhibitory effect of compounds on HDAC1-9 function was determined in vitro using an optimized homogenous assay performed in 384-well plate format. […] Reactions are performed in assay buffer (50 mM HEPES, 100 mM KCl, 0.001% Tween-20, 0.05% BSA, 200 μM TCEP, pH 7.4) and followed for fluorigenic release of 7-amino-4-methylcoumarin from substrate upon deacetylase and trypsin enzymatic activity. Fluorescence measurements are obtained approximately every five minutes using a multilabel plate reader and plate-stacker (Envision; Perkin-Elmer). Data are analyzed on a plate-by-plate basis for the linear range of fluorescence over time. The first derivative of data obtained from the plate capture corresponding to the mid-linear range is imported into analytical software and annotated with well identity and compound concentration (Spotfire DecisionSite). Replicate experimental data from incubations with inhibitor are normalized to control, solvent-only wells.
Data are analyzed by logistic regression with determination of IC50 and standard deviation (Spotfire DecisionSite and GraphPad Prism). Calculation of Ki is determined using a derivation of the standard formula Ki=[Inhibitor]/((VON;)*(1+S/Km))−[Substrate]/Km)−1. […]

inhibition at 100 µM [1]: ~57%
inhibition at 100 µM [2]: ~62%
Compound: O=C(/C=C/c1ccc(C(=O)N/N=C/c2ccc(O)c(O)c2O)cc1)NO [pandacostat, (E)-N-hydroxy-3-(4-((E)-2-(2,3,4-trihydroxybenzylidene) hydrazinecarbonyl)phenyl) acrylamide]

Compound: O=C(/C=C/c1ccc(CN(CCO)CCc2c[nH]c3ccccc23)cc1)NO [LAQ-824]
increased affinity for the H976Y HDAC4 gain of function mutant [3]: 100 fold

Compound: O=C(CCCCCCC(=O)Nc1ccccc1)NO [SAHA]
inhibition of HDAC1-9, isoform selectivity profile [4]: unexpected selectivity

Compound: trichostatin A [TSA]
inhibition of HDAC1-9, isoform selectivity profile [4]: unexpected selectivity
